Laboratory results: US10039761B2, “Co-crystals and pharmaceutical compositions comprising the same” (Vertex Pharmaceuticals Incorporated, priority 2013, dated 2018)
Read-outs that look alike come from different tables or passages of the source.

Key:
[1] = tested on: ESO26 (GEJ) cancer cell line; experiment: Combination with genotoxic agents, viability (Mixtures analysis); format: cell-based; conditions: single agent IC50 on which the mixtures were based
Protocol: (§1) The cell-based experiments and assays were performed with either molecule but not always with both. Compounds (1) and (2) were generally very similar in those assays and experiments. Analysis of the combination experiments was performed using two methods: the Bliss Additivity model and the Mixtures Blend method to determine the degree of synergy, additivity, or antagonism. In the Bliss method, a matrix of Bliss scores was generated for each cell line and treatment, and a sum of the Bliss values over the range of combination concentrations tested was calculated. […] Larger average Bliss values indicate greater confidence in reporting synergy, and smaller scores indicate greater confidence in reporting antagonism. In the Mixtures Blend method combinants were added in a range of optimal ratios using design of experiment (DOE) software (DX-8 from STAT-EASE); the cells were irradiated with 2 Gy as required. Synergy was determined using statistical analysis of the data (ANOVA) to indicate linear (additivity) or statistically significant (p<0.1) non-linear (antagonism or synergy) mixes of the combinants.

HCC-1937 = experiment: Doxorubicin combination in triple negative breast cancer cells; format: cell-based; conditions: Homo sapiens, BRCA mutant
Protocol: as §1

MDA-MB-436 = experiment: as above; format: cell-based; conditions: Homo sapiens, BRCA mutant
Protocol: as §1

HCC-1395 = experiment: as above; format: cell-based; conditions: Homo sapiens, HCC1395, read-out: Doxorubicin IC50 (μM); plating density 5000; BRCA mutant
Protocol: as §1

HCC-1599 = experiment: as above; format: cell-based; conditions: Homo sapiens, HCC1599, read-out: Doxorubicin IC50 (μM); plating density unknown; BRCA mutant
Protocol: as §1

MDA-MB-468 = experiment: as above; format: cell-based; conditions: Homo sapiens, BRCA wild-type
Protocol: as §1

[2] = Two stage dissolution (FaSSGF then FaSSIF); format: physicochemical; conditions: 37° C., compared with free form
Protocol: Two stage dissolution experiments were performed at least in duplicate. Fasted state simulated gastric fluid (FaSSGF) was equilibrated for 30 minutes under stirring to 37° C. in a 100 ml clear class vial using a water bath consisting of a temperature controlled jacketed vessel. The compound 1:adipic acid co-crystal and compound 2:adipic acid co-crystal was added and the suspension was stirred at about 130 rpm and 37° C., respectively. Aliquots (0.5 ml) were taken at 5, 15, 30, and 60 minutes. Solids were separated by filter centrifugation using centrifuge filter units with a 0.45 μm membrane and spinning at 5000 rpm for 5 minutes on an Eppendorff Model 5418 centrifuge. The pH of the dissolution samples was measured after sampling at 15 and 60 minute time points. The supernatants of the filtered samples were 10 fold diluted of with diluent for HPLC Analysis. At the 65 minute timepoint fasted state simulated intestinal fluid FaSSIF equilibrated at 37° C. was added to the suspension and the suspension was continued to stir at 130 rpm. Aliquots (0.5 ml) were taken at 75, 90, 120 and 180 minute timepoints. Solids were separated by filter centrifugation using centrifuge filter units with a 0.45 μm membrane and spinning at 5000 rpm for 5 minutes on an Eppendorff Model 5418 centrifuge. The pH of the dissolution samples was measured after sampling at 75, 90 and 180 minute time points. […]

DNA-PK = DNA-PK (Homo sapiens, UniProt P78527); experiment: DNA-PK kinase inhibition radiometric assay; format: biochemical; conditions: 100 μM ATP; competitive tight-binding inhibition fit
Protocol: Accordingly, compounds of the invention were dissolved in DMSO to make 10 mM initial stock solutions. Serial dilutions in DMSO were then made to obtain the final solutions for the assay.

SMILES: N.N.O=C([O-])C1(C(=O)[O-])CCC1.[Pt+2] [carboplatin]
- IC50 [1]: 50 µM

SMILES: O=c1[nH]cc(F)c(=O)[nH]1 [Compound 5-FU, fluorouracil]
- IC50 [1]: 20 µM

SMILES: COc1cc([C@@H]2c3cc4c(cc3[C@@H](O[C@@H]3O[C@@H]5CO[C@@H](C)O[C@H]5[C@H](O)[C@H]3O)[C@H]3COC(=O)[C@H]23)OCO4)cc(OC)c1O [etoposide]
- IC50 [1]: 0.6 µM

SMILES: COc1cccc2c1C(=O)c1c(O)c3c(c(O)c1C2=O)C[C@@](O)(C(=O)CO)C[C@@H]3O[C@H]1C[C@H](N)[C@H](O)[C@H](C)O1 [Doxorubicin, reference compound]
- IC50 (HCC-1937; HCC1937, read-out: Doxorubicin IC50 (μM), plating density 5000): 0.2 µM
- IC50 (HCC-1937; HCC1937, read-out: Doxorubicin IC50 (μM), plating density 20000): 0.6 µM
- IC50 (MDA-MB-436; MDA-MB-436, read-out: Doxorubicin IC50 (μM), plating density 5000): 0.7 µM
- IC50 (MDA-MB-436; MDA-MB-436, read-out: Doxorubicin IC50 (μM), plating density 20000): 0.3 µM
- IC50 (HCC-1395): 0.5 µM
- IC50 (HCC-1599): 0.2 µM
- IC50 (MDA-MB-468; MDA-MB-468, read-out: Doxorubicin IC50 (μM), plating density 5000): 0.02 µM
- IC50 (MDA-MB-468; MDA-MB-468, read-out: Doxorubicin IC50 (μM), plating density 20000): 0.04 µM

SMILES: [2H]c1nc(C)nc([2H])c1-c1cc(NC[C@@H](C)c2cccc3c(C(=O)NC)ccnc23)ncn1 [adipic acid co-crystal of Compound (2)]
- two stage dissolution concentrations [2]: higher Compound 1 and Compound 2 concentrations than Compound 1 or Compound 2 free form
- Ki (DNA-PK): ~0.002 µM

SMILES: CC(=O)O[C@H]1C(=O)[C@@]2(C)[C@H]([C@H](OC(=O)c3ccccc3)[C@]3(O)C[C@H](OC(=O)[C@H](O)[C@@H](NC(=O)c4ccccc4)c4ccccc4)C(C)=C1C3(C)C)[C@]1(OC(C)=O)CO[C@@H]1C[C@@H]2O [paclitaxel]
- IC50 [1]: 0.003 µM

SMILES: N.N.[Cl][Pt][Cl] [cisplatin]
- IC50 [1]: 1.5 µM
